According to patent publication EP0503537B1, “6,9 Bis(substituted-amino)benzo-[g]isoquinoline-5,10-diones” (THE UNIVERSITY OF VERMONT, priority 1991, dated 1992):
Converted amounts (≈) assume the structure as drawn. Where two headings read alike, the source gives them in different places.

Key:
Lovo/DX = experiment: MTT cytotoxicity assay on doxorubicin-resistant subline Lovo/DX; assay type: cell-based, human; conditions: for IC50: Homo sapiens, LoVo/DX, MTT assay, 144 hrs drug exposure, read-out: IC50 µg/ml±S.D. LoVo/Dx; for R.I.: R.I. = (IC50 LoVo/Dx)/(IC50 LoVo); for cross resistance with mitoxantrone and ametantrone: resistant subline Lovo/DX
Method: (§1) The evaluation of the "in vitro" cytotoxic activity of the compounds of the invention was performed using a human colon adenocarcinoma cell line (Lovo) isolated from a metastatic nodule and a subline with aquired resistance to a number of antitumor agents, among which doxorubicin, VP-16 and vincristine. […] The compounds were tested according to the MTT assay (Mosman, T., "Rapid Colorimetric assay for cellular growth and survival: application to proliferation and cytotoxicity assay", J. Immunol. Methods, (1983), 65, 55-63; Green, L.M., "Rapid colorimetric assay for cell viability; application to the quantitation of cytotoxic and growth inhibitory lymphokines", J. Immunol. Methods, (1984), 70, 257-268) in comparison with mitoxantrone, ametantrone and doxorubicin.
(§2) In vitro biological evaluation: MTT assay on human colon adenocarcinoma Lovo cells.
(§3) The MTT assay was performed according to Mosmann, T., J. Immunol. Methods, (1983), 65, 55-63 and Green, L. M., J. Immunol. Methods, (1984), 70, 257-268.
(§4) Immediately before use, compounds and reference standards are dissolved in proper solvent and subsequently further diluted in complete culture medium. Human colon adenocarcinoma cells Lovo and the subline resistant to doxorubicin (Lovo/DX) (2.5. 10^4 cells/ml) are plated in 96-well plates and preincubated for 24 hours in culture medium. After this time, the cells are exposed to drugs for 144 hours, then the thiazolyl blue tetrazolium bromide solution (MTT solution) is added and the cells are reincubated for 4 hours. The supernatant is removed and 150 µl of dimethylsulfoxide are added to solubilize formazan crystals. The plate is read at 570 nm with microplate reader and the inhibiting concentration of 50% cellular growth (IC50; µg/ml) is calculated.

[1] = test system: human colon adenocarcinoma cell line (Lovo); experiment: MTT cytotoxicity assay on human colon adenocarcinoma Lovo cells; assay type: cell-based; conditions: read-out: IC50 µg/ml±S.D. LoVo
Method: as §1, §2, §3, §4

P388 Murine Leukemia [2] = experiment: In vivo P388 murine leukemia (iv/iv, d 1, 4, 7); conditions: for T/C% (range): median survival time; for TOX: toxic deaths/total number of mice; for LTS: tumor free at 60 days
Method: P388 Murine Leukemia cells were maintained in vivo by serial intraperitoneal (i.p.) injections of 10^6 cells in DBA2 mice. For test purposes, CDF1 mice were inoculated intravenously (i.v.) with 10^6 P388 cells and treatment was initiated 24 hr later. The i.v. dose of drug was administered on days 1, 4 and 7. Mice were observed daily for signs of toxicity and survival. The date of death was recorded for each animal that died or was sacrificed during the 60 day study. The median survival time (MST) for each treatment group was calculated and the % T/C was determined using the following formula: % T/C = [(MST treated)/(MST control)] x 100 [formula]

L1210 murine leukemia = experiment: In vivo ascitic L1210 murine leukemia (ip/ip, d 1, 5, 9), protocol b, 10^5 cells; parameters: species or system CDF1 mice; conditions: for %T/C: median survival time; for TOX: toxic deaths/total No. of mice; for LTS: tumor free at 60 days
Method: Dosages of the drugs were administered ip according to preestablished protocols, usually at 4-day intervals. The studies were done over a 60-day period and the date of death for each animal was recorded. The % T/C was determined using the mean survival time (MST) for each group according to the formula % T/C = [(MST treated)/(MST control)] x 100 [formula]
• a) L1210 murine leukemia cells were maintained in vivo by weekly intraperitoneal (ip) injections of 10^6 cells in BDF1 mice. For test purposes, mice were inoculated i.p. with 10^6 L1210 cells and treatment was initiated 24 hours later. The desired dose of drug was administered on days 1, 5 and 9. Mice were observed daily for signs of toxicity and survival. The date of death was recorded for each animal that died or was sacrificed during the 60-day study. […] For test purposes, CDF1 mice were inoculated i.p. with 10^5 L1210 cells and treatment was initiated 24 hours later. The desired dose of drug was administered on days 1, 5 and 9. Mice were observed daily for signs of toxicity and survival. The date of death was recorded for each animal that died or was sacrificed during the 60-day study. The median survival time (MST) for each treatment group was calculated and the % T/C was determined using the following formula: % T/C = [(MST treated)/(MST control)] x 100 [formula]

P388 Murine Leukemia [3] = experiment: In vivo ascitic P388 murine leukemia (ip/ip, d 1, 5, 9); parameters: species or system CDF1 mice; conditions: for % T/C (range): median survival time; for TOX: toxic deaths/total No. of mice
Method: Treatment was initiated approximately 24 hours after tumor transplantation and dosages of the drug were administered ip (P388 ip/ip) or iv (P388 iv/iv) according to preestablished protocols, usually at 3-day (P388 iv/iv) or 4-day (P388 ip/ip) intervals. The studies were done over a 60-day period and the date of death for each animal was recorded. The % T/C was determined using the mean survival time (MST) for each group according to the formula % T/C = [(MST treated)/(MST control)] x 100 [formula]
P388 Murine Leukemia cells were maintained in vivo by serial intraperitoneal (ip) injections of 10^6 cells in DBA2 mice. For test purposes, CDF1 mice were inoculated i.p. with 10^6 P388 cells and treatment was initiated 24 hours later. The i.p dose of drug was administered on days 1, 5 and 9. Mice were observed daily for signs of toxicity and survival. The date of death was recorded for each animal that died or was sacrificed during the 60-day study. The median survival time (MST) for each treatment group was calculated and the % T/C was determined using the following formula: % T/C = [(MST treated)/(MST control)] x 100 [formula]

[4] = MTT assay, 144 hrs drug exposure

CN(C)CCCNc1ccc(NCCCN(C)C)c2c1C(=O)c1ccncc1C2=O [Compound 12c, 6,9-Bis{[3-(dimethylamino)propyl]amino}benzo[g]isoquinoline-5,10-dione]
IC50 (Lovo/DX): 0.36 ± 0.04 µg/mL (≈ 0.879 µM)
R.I. (Lovo/DX): 2.4
cross resistance with mitoxantrone and ametantrone (Lovo/DX): no cross resistance
IC50 [1, 4]: 0.15 ± 0.07 µg/mL (≈ 0.366 µM)

O=C1c2ccccc2C(=O)c2c(NCCNCCO)ccc(NCCNCCO)c21 [Ametantrone, 1,4-bis{[2-(2-hydroxyethylamino)ethyl]amino}anthracene-9,10-dione, reference compound]
IC50 (Lovo/DX): 33.4 ± 13.9 µg/mL (≈ 81 µM)
R.I. (Lovo/DX): 101.2
IC50 [1, 4]: 0.33 ± 0.1 µg/mL (≈ 0.8 µM)

O=C1c2c(O)ccc(O)c2C(=O)c2c(NCCNCCO)ccc(NCCNCCO)c21 [Mitoxantrone, 5,8-dihydroxy-1,4-bis{[2-(2-hydroxyethylamino)ethyl]amino}anthracene-9,10-dione, reference compound]
T/C% (range) (P388 Murine Leukemia [2]; 2 mg/kg/day iv days 1,4,7): 162(154-167) %
TOX (P388 Murine Leukemia [2]; 2 mg/kg/day iv days 1,4,7): 0/42
LTS (P388 Murine Leukemia [2]; 2 mg/kg/day iv days 1,4,7): 0/42
T/C% (range) (P388 Murine Leukemia [2]; 3 mg/kg/day iv days 1,4,7): 185(167-217) %
TOX (P388 Murine Leukemia [2]; 3 mg/kg/day iv days 1,4,7): 4/78
LTS (P388 Murine Leukemia [2]; 3 mg/kg/day iv days 1,4,7): 0/78
T/C% (range) (P388 Murine Leukemia [2]; 4 mg/kg/day iv days 1,4,7): 118(89-133) %
TOX (P388 Murine Leukemia [2]; 4 mg/kg/day iv days 1,4,7): 20/24
LTS (P388 Murine Leukemia [2]; 4 mg/kg/day iv days 1,4,7): 0/24
%T/C (L1210 murine leukemia; 1.5 mg/kg/day ip days 1,5,9): 188%
TOX (L1210 murine leukemia; 1.5 mg/kg/day ip days 1,5,9): 0/8
LTS (L1210 murine leukemia; 1.5 mg/kg/day ip days 1,5,9): 1/8
%T/C (L1210 murine leukemia; 3 mg/kg/day ip days 1,5,9): 194%
TOX (L1210 murine leukemia; 3 mg/kg/day ip days 1,5,9): 1/8
LTS (L1210 murine leukemia; 3 mg/kg/day ip days 1,5,9): 1/8
IC50 (Lovo/DX): 0.29 ± 0.1 µg/mL (≈ 0.652 µM)
R.I. (Lovo/DX): 29.0
LTS (day 60) (P388 Murine Leukemia [3]; 1.5 mg/kg/day ip days 1,5,9): 1/26
% T/C (range) (P388 Murine Leukemia [3]; 1.5 mg/kg/day ip days 1,5,9): 186(160-225) %
TOX (P388 Murine Leukemia [3]; 1.5 mg/kg/day ip days 1,5,9): 6/26
LTS (day 60) (P388 Murine Leukemia [3]; 3 mg/kg/day ip days 1,5,9): 1/42
% T/C (range) (P388 Murine Leukemia [3]; 3 mg/kg/day ip days 1,5,9): 173(142-205) %
TOX (P388 Murine Leukemia [3]; 3 mg/kg/day ip days 1,5,9): 21/42
IC50 ([1]; 144 h): 0.01 ± 0.009 µg/mL (≈ 0.0225 µM)

CCN(CC)CCNc1ccc(NCCN(CC)CC)c2c1C(=O)c1ccncc1C2=O [Compound 10b, 6,9-Bis{[2-(diethylamino)ethyl]amino}benzo[g]isoquinoline-5,10-dione]
IC50 (Lovo/DX): 0.69 ± 0.1 µg/mL (≈ 1.58 µM)
R.I. (Lovo/DX): 2.4
cross resistance with mitoxantrone and ametantrone (Lovo/DX): no cross resistance
IC50 [1, 4]: 0.29 ± 0.05 µg/mL (≈ 0.663 µM)

COc1cccc2c1C(=O)c1c(O)c3c(c(O)c1C2=O)C[C@@](O)(C(=O)CO)C[C@@H]3O[C@H]1C[C@H](N)[C@H](O)[C@H](C)O1 [Doxorubicin, reference compound]
IC50 (Lovo/DX): 4.28 ± 1.8 µg/mL (≈ 7.87 µM)
R.I. (Lovo/DX): 142.7
IC50 [1, 4]: 0.03 ± 0.009 µg/mL (≈ 0.0552 µM)

NCCCNc1ccc(NCCCN)c2c1C(=O)c1ccncc1C2=O [Compound 12a, 6,9-Bis{[3-(amino)propyl]amino}benzo[g]isoquinoline-5,10-dione]
IC50 (Lovo/DX): 20.9 ± 0.72 µg/mL (≈ 59.1 µM)
R.I. (Lovo/DX): 12.7
IC50 [1, 4]: 1.64 ± 0.02 µg/mL (≈ 4.64 µM)

O=C1c2ccncc2C(=O)c2c(NCCN3CCCC3)ccc(NCCN3CCCC3)c21 [Compound 10d, 6,9-Bis{[2-(1'-pyrrolidino)ethyl]amino}benzo[g]isoquinoline-5,10-dione]
IC50 (Lovo/DX): 0.52 ± 0.15 µg/mL (≈ 1.2 µM)
R.I. (Lovo/DX): 2.6
cross resistance with mitoxantrone and ametantrone (Lovo/DX): no cross resistance
IC50 [1, 4]: 0.2 ± 0.03 µg/mL (≈ 0.461 µM)

O=C1c2ccncc2C(=O)c2c(NCCN3CCOCC3)ccc(NCCN3CCOCC3)c21 [Compound 10e, 6,9-Bis{[2-(4'-morpholino)ethyl]amino}benzo[g]isoquinoline-5,10-dione]
IC50 (Lovo/DX): 2.29 ± 0.67 µg/mL (≈ 4.92 µM)
R.I. (Lovo/DX): 0.4
cross resistance with mitoxantrone and ametantrone (Lovo/DX): no cross resistance
IC50 [1, 4]: 5.32 ± 1.55 µg/mL (≈ 11.4 µM)
